The values below come from patent US20150197492A1, “NOVEL INDENO[1,2-c]QUINOLIN-11-ONE DERIVATIVES, PREPARATION METHOD AND APPLICATION THEREOF” (National Defense Medical Center, priority 2014, published 2015).

The test system of series [1] is human PC-3 cells. Description: Sulforhodamine B (SRB) assay, cytotoxicity against PC-3 cells. It counts as cell-based. To be noted: SRB assay, PC-3 cells. How it is done: Add 5% Fetal Bovine Serum (FBS) to 96-well plate and fix the cells with 10% TCA after 24 hours of incubation and add the compound (T0). Add DMSO and culture for another 48 hours and the cells are fixed in 0.4% (W/V), 10% TCA and SRB, and […]. Excess SRB is washed off by 1% acetic acid and cells stained with SRB are dissolved in 10 mmol/L Trizma base. The absorbance is measured at 515 nm. The treatment time is 0 (T0), control growth (C) and the increase of the compound (Tx) in the cells are shown below and are used to calculate the increase of the concentration of the compound in percentage. Growth inhibition (GI %) is calculated using the following formula 100−[(TX−T0)/(C−T0)]×100. The 50% growth inhibition concentration (IC50) is used to confirm the concentration of compound and thus results in 50% reduction of the treated cells which control the amount of total protein.
This part of experimental results are SRB assays measuring cytotoxicity of the 26 synthesized compounds against human PC-3 cells and are summarized in Table 1 and 2.

A short description of series [2]: Solubility in DMSO. Particulars: order SJ-2<SJ-24<SJ-3<SJ-11. It counts as physicochemical. An excerpt:
The solubility of the four compounds in DMSO is poor, SJ-2<SJ-24<SJ-3<SJ-11, and therefore it is estimated and this is the reason why the three compounds which have previously proven to be effective against PC-3 cell line by SRB assays are ineffective in this experiment.

As usually defined, the melting point is the temperature, or range, at which the solid turns liquid. As to `O=C1c2cc(Cl)ccc2-c2c(N3CCCC3)nc3ccccc3c21` [SJ-4, 9-Chloro-6-(pyrrolidin-1-yl)-11H-indeno[1,2-c]quinolin-11-one], the melting point fell in the range of 149 to 150 °C. For the same compound, in series [1], the “Toxicity (%)” value came to 47.2% and the “GI % (10 μM)” value is given as 100%.

For `O=C1c2cc(Cl)ccc2-c2c(N3CCCCC3)nc3ccccc3c21` [SJ-5, 9-Chloro-6-(piperidin-1-yl)-11H-indeno[1,2-c]quinolin-11-one], the melting point fell in the range of 191 to 192 °C. Moreover, in series [1], the “Toxicity (%)” value is listed as 22.2% and the “GI % (10 μM)” value is on record as 100%.

In the case of `O=C1c2cc(Cl)ccc2-c2c(N3CCCCCC3)nc3ccccc3c21` [SJ-7, 6-(Azepan-1-yl)-9-chloro-11H-indeno[1,2-c]quinolin-11-one], the melting point lay in the range of 146 to 147 °C. In series [1], the “Toxicity (%)” value came to 41.7% and the “GI % (10 μM)” value came to 100%.

`CCN1CCN(c2nc3ccccc3c3c2-c2ccc(Cl)cc2C3=O)CC1` [SJ-13, 9-Chloro-6-(4-ethylpiperazin-1-yl)-11H-indeno[1,2-c]quinolin-11-one] gave a melting point of 182 to 184 °C. Also, in series [1], the “Toxicity (%)” value was 29.7% and the “GI % (10 μM)” value is listed as 100%.

`O=C1c2cc(Cl)ccc2-c2c(N3CCC(N4CCCCC4)CC3)nc3ccccc3c21` [SJ-15, 9-Chloro-6-(4-(piperidin-1-yl)piperidin-1-yl)-11H-indeno[1,2-c]quinolin-11-one] showed a melting point of 174 to 175 °C. Moreover, in series [1], the “Toxicity (%)” value came to 0% and the “GI % (10 μM)” value worked out at 98.83%.

The compound `O=C1c2cc(Cl)ccc2-c2c(N3CCN(Cc4ccccc4)CC3)nc3ccccc3c21` [SJ-17, 6-(4-Benzylpiperazin-1-yl)-9-chloro-11H-indeno[1,2-c]quinolin-11-one] gave a melting point of 178 to 180 °C. Moreover, in series [1], the “Toxicity (%)” value is recorded as 0% and the “GI % (10 μM)” value is 73.53%.

Consider `O=C1c2cc(Cl)ccc2-c2c(N3CCN(c4ccccc4F)CC3)nc3ccccc3c21` [SJ-18, 9-Chloro-6-(4-(2-fluorophenyl)piperazin-1-yl)-11H-indeno[1,2-c]quinolin-11-one], for which the melting point lay in the range of 182 to 183 °C. In series [1], the “Toxicity (%)” value came out at 0% and the “GI % (10 μM)” value stood at 85.48%.

`COc1ccccc1N1CCN(c2nc3ccccc3c3c2-c2ccc(Cl)cc2C3=O)CC1` [SJ-19, 9-Chloro-6-(4-(2-methoxyphenyl)piperazin-1-yl)-11H-indeno[1,2-c]quinolin-11-one]: the melting point is 129 to 131 °C. In series [1], the “Toxicity (%)” value came out at 8.5% and the “GI % (10 μM)” value turned out to be 100%.

The compound `CN1CCC(N2CCN(c3nc4ccccc4c4c3-c3ccc(Cl)cc3C4=O)CC2)CC1` [SJ-21, 9-Chloro-6-(4-(1-methylpiperidin-4-yl)piperazin-1-yl)-11H-inden o[1,2-c]quinolin-11-one] displayed a melting point of 208 to 209 °C. Further, in series [1], the “Toxicity (%)” value is on record as 66% and the “GI % (10 μM)” value stood at 100%.

As for `O=C1c2cc(Cl)ccc2-c2c(N3CCC4(CC3)OCCO4)nc3ccccc3c21` [SJ-22], the melting point lay in the range of 218 to 219 °C. For the same compound, in series [1], the “Toxicity (%)” value came to 42.6% and the “GI % (10 μM)” value is on record as 100%.

Consider `O=C1c2cc(Cl)ccc2-c2c(N3CCC(CCCC4CCNCC4)CC3)nc3ccccc3c21` [SJ-24, 9-Chloro-6-(4-(3-(piperidin-4-yl)propyl)piperidin-1-yl)-11H-indeno[1,2-c]quinolin-11-one], for which the melting point was in the range of 149 to 151 °C. Besides, in series [1], the “Toxicity (%)” value amounted to 63.8% and the “GI % (10 μM)” value is listed as 100%. Also, the “solubility in DMSO” value in series [2] is listed as “poor”.
